Results from patent US20220241308A1, “NEURONAL FUNCTION MODULATING AGENT” (University of Tsukuba, priority 2019, published 2022).

Tests used:
SH-SY5Y cells [1] = experiment: Cell survival experiment (MTT), cell death induced by amyloid β protein; format: cell-based; details: compound 12.56 μM, 72 h, compared to “Aβ”
Description: (§1) Each well of a 96-well plate (BD Biocoat) was seeded with SH-SY5Y cells (model of neuronal cells, ATCC) at a concentration of 2×10^5 cells/mL (100 μL/well) and the cells were cultured at 37° C. and 5% CO2 for 24 h. Culture medium used was F12/DMEM (Gibco) supplemented with 1% non-essential amino acids (Gibco), 15% FBS (Bio West), and 1% penicillin/streptomycin (Lonza).
After 24 h, the culture medium was completely removed with an aspirator, 100 μL of culture medium Opti-MEM (Gibco) was added to each well, and the cells were cultured at 37° C. and 5% CO2 for 24 h. […]
Absorbance at 570 nm was measured on a microplate reader (Sumitomo Dainippon Pharma) to measure the MTT formazan production to calculate % relative cell survival (designated as “Control” in FIG. 1).
24 h after seeding a 96-well plate (BD Biocoat) with SH-SY5Y cells, the culture medium was completely removed with an aspirator, amyloid β protein (Beta-Amyloid 1-42, AnaSpec) was mixed with Opti-MEM (Gibco) so that the final concentration was 15 μM, 100 μL of the mixture was added to each well, and the cells were cultured at 37° C. and 5% CO2 for 72 h to induce cell death. Except for performing the procedure described above, the MTT formazan production was measured as described above to calculate % relative cell survival (designated as “Aβ” in FIG. 1). […]

SH-SY5Y cells [2] = experiment: ATP production measurement experiment; format: cell-based; details: 12.56 μM; 6 h, 12 h, 24 h; compared to “Control”
Description: Specifically, ATP production was measured according to the protocol recommended by Toyo B-NET (URL: https://search.cosmobio.co.jp/cosmo_search_p/search_gate2/docs/TIC_/CA10.20131125.pdf) using an ATP assay reagent (“Cell” ATP Assay reagent, Toyo B-NET) (designated as “Control” in FIG. 9).
as §1
After 24 h, the culture medium was completely removed with an aspirator, 100 μL of culture medium Opti-MEM (Gibco) was added to each well, and the cells were cultured for 6 h, 12 h, and 24 h at 37° C. and 5% CO2. After each culturing time point, 100 μL of ATP assay reagent (“Cell” ATP Assay reagent, Toyo Ink)) was added to each well and mixed and the mixture was allowed to stand for reaction for 10 min at room temperature in dark conditions. […] Light emission after a lapse of a predetermined time was measured on a microplate reader (Sumitomo Dainippon Pharma) to find ATP production (designated as “Control” in FIG. 9). […]

COc1cc(-c2[o+]c3cc(O)cc(OC4OC(CO)C(O)C(O)C4O)c3cc2OC2OC(CO)C(O)C(O)C2O)cc(OC)c1O (centres unmarked) [M3,5G, Malvidin-3,5-diglucoside chloride]
% relative cell survival (SH-SY5Y cells [1]): significantly high | ATP production (SH-SY5Y cells [2]): increased ATP production
